20 molecules from patent publication US11766434B2, “Pyrimidinone derivatives as CDC7 inhibitors” (Cancer Research Technology Limited, priority 2016, dated 2023) can be followed below.

The target of one assay is Cdc7 (Homo sapiens, UniProt O00311). Put plainly: Cdc7 cell pharmacodynamics assay Method 3: pS53MCM2 levels in SW48 cells. The arrangement: endogenous in cells; host or cells: SW48. It is filed as cell-based. Particulars: 6 hours treatment, read-out: Biomarker Method 3 (pEC50) (converted). The source says:
This protocol describes a method to investigate the inhibition of Cdc7 activity by measuring pS53MCM2 levels in cells, after treatment with compounds.
• SW48 cells • RPMI 1640 (Sigma, R5886) • 10% FCS (Sera Laboratories International Ltd, EU000F Batch: 108005) • 100× L-Glutamine (Invitrogen, 25030-024) • D-Glucose Solution (10%) (Sigma, G8644) • HEPES Buffer Solution (Sigma, 83264) • Sodium Pyruvate (Sigma, S8636) • PBS (Fisger, BP399-4) • Trypsin/EDTA (Invitrogen 25300-054) • 2% BSA in PBS • Cell Extraction Buffer (Invitrogen FNN0011) • Protease inhibitor cocktail (Sigma P-2714) • PMSF 0.3M stock in DMSO (Sigma P7626) • Antibody—rabbit pMCM2 Ser53 (Bethyl #A300-756A) • Antibody—goat MCM2 (Bethyl #A300-122A) • Antibody—goat Anti Rabbit IgG HRP (Perbio Science UK Ltd 31462) • SuperSignal ELISA Pico Chemiluminescent Substrate (Perbio Science UK Ltd 37070) Method • Plate 30,000 SW48 cells per well in standard TC treated 96 well plate in 100 μL complete RPMI 1640 medium. • Allow cells to settle overnight in incubator set at 37° C. and 5% CO2. • Cell treatment: prepare a 384 well plate containing 80 μl PBS/well. The PBS should be at room temperature—to be referred to as intermediate plate. Transfer 2 μL of compound from mother plate to intermediate (daughter plate) 1:40 dilution, then 5 μL intermediate to cell (daughter) plate. • Once all cells are treated place the cells back to the incubator and incubate for 6 hours. • Dilute the capture antibody (total MCM2 #A300-122A) 1 in 250 in the required volume of PBS (5 mL per assay plate, plus 5 mL for dead volume) and add 50 μL to each well of a Hybond plate. Seal the plate and incubate at room temperature for a minimum of 2 hours. • Defrost aliquot of Invitrogen Cell Extraction Buffer (FNN0011) on ice and supplement with appropriate volume of both Sigma protease inhibitor cocktail (P-2714) and PMSF (final cone 1 mM from a 1 M stock in DMSO). • After the 6 hour cell treatment time, tap out the media from the assay plates and place them in the −80° C. freezer for at least 5 minutes. • Remove plates from freezer and add 20 μL of ice cold complete lysis buffer, with the multidrop. Incubate cells for 30 minutes at 4° C. • Add 80 μL per well 2% BSA. • Flick out the remaining liquid from the capture plate and transfer 80 μL from the lysis plate to the same wells in the capture/ELISA plate, using the Biomek. Cover with plate seal and incubate plates overnight at 4° C. • Wash plates with PBS, remove any residual remaining liquid and add 50 μL per well of pMCM2 Ser53 antibody (#A300-756A) diluted 1 in 100 in 2% BSA. Cover plate and incubate at room temperature for 2 hours with gentle shaking. • Wash plates with PBS, remove any residual remaining liquid and Incubate with 50 μL goat anti rabbit antibody (1 in 800 dilution in 2% BSA), for 1 hour at room temperature. • Wash plates with PBS, remove any residual remaining liquid and add 50 μL mixed SuperSignal Pico substrate. • Incubate each plate for 5 minutes at room temperature shielding the plates from direct light (with a cover plate). Read plates with the luminescent detection. Results

A further assay deals with Cdc7/ASK (Homo sapiens, UniProt O00311). Put plainly: Cdc7 biochemical assay Method 3: off-chip mobility shift assay (MSA) run at Carna Biosciences. The arrangement: purchased Carna Biosciences; host or cells: baculovirus expression system. The following applies: MCM2 peptide 1000 nM, ATP 5 μM, 5 hours, read-out: Biochemical method 3 (pIC50) (converted). The protocol:
This protocol describes a method for assaying Cdc7/ASK for activity. The assay is an off-chip mobility shift assay (MSA) run at Carna Biosciences.
The test compound was dissolved in and diluted with dimethylsulfoxide (DMSO) to achieve 100-fold higher concentration which was specified by the sponsor. Then the solution was further 25-fold diluted with assay buffer to make the final test compound solution. Reference compounds for assay control were prepared similarly. 2. Kinase Cdc7/ASK: Full-length human Cdc7 [1-574(end) amino acids of accession number NP_003494.1] was co-expressed as N-terminal GST-fusion protein (92 kDa) with Dbf4(ASK) [1-674(end) amino acids of accession number NP_006707.1] using baculovirus expression system. GST-Cdc7 was purified by using glutathione sepharose chromatography. 3. Assay Reagents and Procedures Off-Chip Mobility Shift Assay (MSA) • 1) The […] were prepared with assay buffer (20 mM HEPES, 0.01% Triton X-100, 1 mM DTT, pH 7.5) and mixed and incubated in a well of polypropylene 384 well microplate for 5 hours at room temperature. • 2) […] of Termination Buffer (QuickScout Screening Assist MSA; Carna Biosciences) was added to the well. • 3) The reaction mixture was applied to LabChip system (Perkin Elmer), and the product and substrate peptide peaks were separated and quantitated. • 4) The kinase reaction was evaluated by the product ratio calculated from peak heights of product (P) and substrate (S) peptides (P/(P+S)). 4. Reaction Conditions
5. Data Analysis The readout value of reaction control (complete reaction mixture) was set as a 0% inhibition, and the readout value of background (Enzyme(−)) was set as a 100% inhibition, then the percent inhibition of each test solution was calculated. IC50 value was calculated from concentration vs. % Inhibition curves by fitting to a four parameter logistic curve. Results

Where a name gives a salt, the structure may show the parent alone.

Cdc7, sequence (O00311 whole entry): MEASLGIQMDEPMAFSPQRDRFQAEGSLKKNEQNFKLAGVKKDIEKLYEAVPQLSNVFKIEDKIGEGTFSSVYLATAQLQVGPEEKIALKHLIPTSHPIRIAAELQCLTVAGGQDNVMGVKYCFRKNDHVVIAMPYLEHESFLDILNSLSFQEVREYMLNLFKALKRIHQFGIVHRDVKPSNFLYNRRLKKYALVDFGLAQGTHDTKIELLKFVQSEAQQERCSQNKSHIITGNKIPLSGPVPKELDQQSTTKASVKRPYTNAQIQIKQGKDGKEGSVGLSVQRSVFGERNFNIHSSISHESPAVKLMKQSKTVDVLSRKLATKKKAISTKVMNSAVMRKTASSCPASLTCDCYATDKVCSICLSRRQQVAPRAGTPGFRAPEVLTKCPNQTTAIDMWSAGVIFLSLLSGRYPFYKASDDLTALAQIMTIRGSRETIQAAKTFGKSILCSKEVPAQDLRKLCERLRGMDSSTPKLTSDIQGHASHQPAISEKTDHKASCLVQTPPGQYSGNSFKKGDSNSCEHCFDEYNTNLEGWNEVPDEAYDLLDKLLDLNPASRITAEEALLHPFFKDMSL
Cdc7, sequence (Q9UBU7 whole entry partner): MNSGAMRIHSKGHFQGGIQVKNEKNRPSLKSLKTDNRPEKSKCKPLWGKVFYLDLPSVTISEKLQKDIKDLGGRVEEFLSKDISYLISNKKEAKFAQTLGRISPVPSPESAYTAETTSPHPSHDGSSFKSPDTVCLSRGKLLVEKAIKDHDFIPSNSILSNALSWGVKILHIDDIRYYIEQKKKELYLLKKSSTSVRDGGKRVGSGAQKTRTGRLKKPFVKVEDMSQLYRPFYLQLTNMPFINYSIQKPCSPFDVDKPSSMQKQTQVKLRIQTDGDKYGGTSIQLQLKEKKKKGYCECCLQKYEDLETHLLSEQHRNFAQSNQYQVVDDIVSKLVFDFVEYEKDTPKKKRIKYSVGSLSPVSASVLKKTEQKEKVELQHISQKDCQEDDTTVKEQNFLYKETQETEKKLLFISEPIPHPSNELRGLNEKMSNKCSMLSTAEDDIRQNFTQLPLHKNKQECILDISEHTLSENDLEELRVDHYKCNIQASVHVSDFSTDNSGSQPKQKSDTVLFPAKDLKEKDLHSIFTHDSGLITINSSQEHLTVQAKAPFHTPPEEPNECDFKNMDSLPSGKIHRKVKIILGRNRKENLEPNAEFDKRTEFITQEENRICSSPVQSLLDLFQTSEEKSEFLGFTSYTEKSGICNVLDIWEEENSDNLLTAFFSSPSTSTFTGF
Cdc7/ASK, sequence (O00311 whole entry): as the sequence (O00311 whole entry) above
Cdc7/ASK, sequence (Q9UBU7 whole entry partner): as the sequence (Q9UBU7 whole entry partner) above

Take `Cc1ncsc1-c1nc(N2CCNC[C@H]2C)c(Cl)c(=O)[nH]1` [Compound 58, 5-chloro-4-[(2R)-2-methylpiperazin-1-yl]-2-(4-methylthiazol-5-yl)-1H-pyrimidin-6-one]: the EC50 at Cdc7 was 0.331 µM. Also, on Cdc7/ASK, the IC50 is 0.00708 µM.

`O=c1[nH]c(-c2scnc2Cl)nc(N2CCNCC(F)C2)c1Cl` (single isomer, unassigned) [Compound 72, 5-chloro-2-(4-chlorothiazol-5-yl)-4-(6-fluoro-1,4-diazepan-1-yl)-1H-pyrimidin-6-one hydrochloride]: at Cdc7, the EC50 was 0.0955 µM. For the same molecule, at Cdc7/ASK, the IC50 is 0.0038 µM.

Regarding `O=c1[nH]c(-c2scnc2Cl)nc(N2CCNCC(F)C2)c1Cl` (racemic) [Compound 71, 5-chloro-2-(4-chlorothiazol-5-yl)-4-(6-fluoro-1,4-diazepan-1-yl)-1H-pyrimidin-6-one hydrochloride], the EC50 at Cdc7 is 0.251 µM. Moreover, the IC50 at Cdc7/ASK is 0.00575 µM.

As to `O=c1[nH]c(-c2scnc2Cl)nc(N2CCNCC2C(F)(F)F)c1Cl` (stereo not shown) [Compound 68, 5-chloro-2-(4-chlorothiazol-5-yl)-4-[2-(trifluoromethyl)piperazin-1-yl]-1H-pyrimidin-6-one], the EC50 on Cdc7 is 0.2 µM. Also, the IC50 on Cdc7/ASK was 0.00692 µM.

As for `Cc1nocc1-c1nc(N2CCNC[C@H]2C)c(Cl)c(=O)[nH]1` [Compound 49, 5-chloro-2-(3-methylisoxazol-4-yl)-4-[(2R)-2-methylpiperazin-1-yl]-1H-pyrimidin-6-one], the EC50 on Cdc7 is 4.57 µM. In addition, at Cdc7/ASK, the IC50 is 0.0513 µM.

For `C[C@@H]1COCCN1c1nc(-c2scnc2Cl)[nH]c(=O)c1Cl` [Compound 64, 5-chloro-2-(4-chlorothiazol-5-yl)-4-[(3R)-3-methylmorpholin-4-yl]-1H-pyrimidin-6-one], the EC50 on Cdc7 is 0.166 µM. Also, the IC50 on Cdc7/ASK was 0.00417 µM.

For `O=c1[nH]c(-c2scnc2C(F)(F)F)nc(N2CCNCC(F)(F)C2)c1Cl` [Compound 63, 5-chloro-4-(6,6-difluoro-1,4-diazepan-1-yl)-2-[4-(trifluoromethyl)thiazol-5-yl]-1H-pyrimidin-6-one], at Cdc7, the EC50 is 0.525 µM. Further, on Cdc7/ASK, the IC50 is 0.0055 µM.

`Cc1ncsc1-c1nc(N2CCNCC(F)C2)c(Cl)c(=O)[nH]1` (stereo not shown) [Compound 62, 5-chloro-4-(6-fluoro-1,4-diazepan-1-yl)-2-(4-methylthiazol-5-yl)-1H-pyrimidin-6-one]: the EC50 at Cdc7 was 0.977 µM. Besides, the IC50 at Cdc7/ASK was 0.0214 µM.

As for `O=c1[nH]c(-c2scnc2Cl)nc(N2CCNCC2C(F)F)c1Cl` (single isomer, unassigned) [Compound 70, 5-chloro-2-(4-chlorothiazol-5-yl)-4-[2-(difluoromethyl)piperazin-1-yl]-1H-pyrimidin-6-one hydrochloride], at Cdc7, the EC50 is 0.324 µM. Also, the IC50 at Cdc7/ASK was 0.00676 µM.

`C[C@@H]1CNCCN1c1nc(-c2scnc2Cl)[nH]c(=O)c1Cl` [Compound 65, 5-chloro-2-(4-chlorothiazol-5-yl)-4-[(2R)-2-methylpiperazin-1-yl]-1H-pyrimidin-6-one hydrochloride]: the EC50 at Cdc7 was 0.038 µM. For the same molecule, the IC50 at Cdc7/ASK was 0.00389 µM.

Consider `Cc1ncsc1-c1nc(N2CCNCC2C(F)F)c(Cl)c(=O)[nH]1` (stereo not shown) [Compound 61, 5-chloro-4-[2-(difluoromethyl)piperazin-1-yl]-2-(4-methylthiazol-5-yl)-1H-pyrimidin-6-one], for which the EC50 on Cdc7 is 0.162 µM. For the same molecule, the IC50 on Cdc7/ASK was 0.0129 µM.

As to `C[C@@H]1CNCCN1c1nc(-c2ccnn2C)[nH]c(=O)c1Cl` [Compound 50, 5-chloro-4-[(2R)-2-methylpiperazin-1-yl]-2-(2-methylpyrazol-3-yl)-1H-pyrimidin-6-one], the EC50 on Cdc7 is 3.63 µM. Besides, the IC50 at Cdc7/ASK is 0.0437 µM.

Take `O=c1[nH]c(-c2scnc2Cl)nc(N2CCNCC2C(F)F)c1Cl` (single isomer, unassigned) [Compound 69, 5-chloro-2-(4-chlorothiazol-5-yl)-4-[2-(difluoromethyl)piperazin-1-yl]-1H-pyrimidin-6-one hydrochloride]: at Cdc7, the EC50 is 0.0166 µM. Further, the IC50 at Cdc7/ASK is 0.00339 µM.

Regarding `O=c1[nH]c(-c2scnc2Cl)nc(N2CCNCC2C(F)F)c1Cl` (stereo not shown) [Compound 67, 5-chloro-2-(4-chlorothiazol-5-yl)-4-[2-(difluoromethyl)piperazin-1-yl]-1H-pyrimidin-6-one], the EC50 at Cdc7 is 0.0977 µM. Moreover, at Cdc7/ASK, the IC50 is 0.00603 µM.

In the case of `Cc1ncsc1-c1nc(N2CCNCC2C(F)(F)F)c(Cl)c(=O)[nH]1` (stereo not shown) [Compound 60, 5-chloro-2-(4-methylthiazol-5-yl)-4-[2-(trifluoromethyl)piperazin-1-yl]-1H-pyrimidin-6-one], the EC50 at Cdc7 was 1.23 µM. Also, at Cdc7/ASK, the IC50 was 0.02 µM.

As for `O=c1[nH]c(-c2scnc2Cl)nc(N2CCNCC(F)C2)c1Cl` (single isomer, unassigned) [Compound 73, 5-chloro-2-(4-chlorothiazol-5-yl)-4-(6-fluoro-1,4-diazepan-1-yl)-1H-pyrimidin-6-one hydrochloride], the EC50 at Cdc7 is 1.32 µM. Moreover, the IC50 on Cdc7/ASK was 0.0102 µM.

With `Cc1ncsc1-c1nc(N2CCOC[C@H]2C)c(Cl)c(=O)[nH]1` [Compound 59, 5-chloro-4-[(3R)-3-methylmorpholin-4-yl]-2-(4-methylthiazol-5-yl)-1H-pyrimidin-6-one], the EC50 at Cdc7 is 0.724 µM. Besides, the IC50 at Cdc7/ASK was 0.00741 µM.

As to `Cc1ncsc1-c1nc(N2CCNCC(F)(F)C2)c(Cl)c(=O)[nH]1` [Compound 57, 5-chloro-4-(6,6-difluoro-1,4-diazepan-1-yl)-2-(4-methylthiazol-5-yl)-1H-pyrimidin-6-one hydrochloride], the EC50 on Cdc7 is 0.724 µM. The IC50 on Cdc7/ASK was 0.00646 µM.

Regarding `O=c1[nH]c(-c2cn[nH]c2Cl)nc(N2CCNCC(F)(F)C2)c1Cl` [Compound 40, 5-chloro-2-(5-chloro-1H-pyrazol-4-yl)-4-(6,6-difluoro-1,4-diazepan-1-yl)-1H-pyrimidin-6-one hydrochloride], the EC50 on Cdc7 is 0.195 µM. For the same molecule, the IC50 at Cdc7/ASK is 0.00372 µM.

Consider `O=c1[nH]c(-c2scnc2Cl)nc(N2CCNCC(F)(F)C2)c1Cl` [Compound 66, 5-chloro-2-(4-chlorothiazol-5-yl)-4-(6,6-difluoro-1,4-diazepan-1-yl)-1H-pyrimidin-6-one hydrochloride], for which the EC50 at Cdc7 is 0.0759 µM. Further, on Cdc7/ASK, the IC50 is 0.00427 µM.
